Patent US10370436B2, “Anti-pseudomonas Psl binding molecules and uses thereof” (priority 2011, dated 2019)

Assays:
[1] = system: luminescent P. aeruginosa serogroup 05 strain (PAO1.lux); assay: Opsonophagocytosis killing (OPK) assay, PAO1.lux; assay type: cell-based, Pseudomonas aeruginosa
Protocol: (§1) This example describes the evaluation of prioritized human IgG1 antibodies to promote OPK of P. aeruginosa. […] OPK assays were performed as described in (DiGiandomenico, A., et al., Infect Immun 72, 7012-7021 (2004)), with modifications. Briefly, assays were performed in 96-well plates using 0.025 ml of each OPK component; P. aeruginosa strains; diluted baby rabbit serum; differentiated HL-60 cells; and monoclonal antibody. In some OPK assays, luminescent P. aeruginosa strains, which were constructed as described (Choi, K. H., et al., Nat Methods 2, 443-448 (2005)), were used. Luminescent OPK assays were performed as described above but with determination of relative luciferase units (RLUs) using a Perkin Elmer ENVISION Multilabel plate reader (Perkin Elmer).
(§2) This example describes two series of experiments evaluating the ability of PMB-mAb conjugates to promote OPK of P. aeruginosa. In the first experiments (FIGS. 15A-B), conjugate-mediated OPK activity by human HL-60 neutrophil cell line in the presence of rabbit complement was evaluated using P. aeruginosa strains expressing bacterial luciferase as described in Example 2. R347 was used as a negative control in these experiments. […] In the second series of experiments, reduction in luminescence following 2 h incubation relative to control lacking mAb was used to determine % killing.

[2] = system: P. aeruginosa strain 9882-80 (O11); assay: OPK assay, strain 9882-80.lux; assay type: cell-based, Pseudomonas aeruginosa; details: strain 9882-80.lux (O11); FIG. 2B
Protocol: as §1
The ability of the WapR-004 and Cam-003 antibodies to mediate OPK activity against another clinically relevant O-antigen serotype strain, 9882-80.lux, was evaluated.

PAO1ΔpslA = assay: OPK assay, Psl-deficient PAO1ΔpslA and complemented strain; assay type: cell-based, Pseudomonas aeruginosa; details: complemented PAO1ΔpslA in contrast to the mutant; FIGS. 3F, 3G
Protocol: as §1, with “Elmer). […]” for “Elmer).”
as §2, with “2.” for “2. R347 was used as a negative control in these experiments.”

[3] = system: P. aeruginosa PAO1.lux association with A549 cells; assay: Cell attachment assay, PAO1.lux to A549 cells; assay type: cell-based, Pseudomonas aeruginosa; details: MOI of 10, FIG. 4, FIG. 9B
Protocol: Anti-Psl antibodies were added to a confluent monolayer of A549 cells (an adenocarcinoma human alveolar basal epithelial cell line) grown in opaque 96-well plates (Nunc Nunclon Delta). Log-phase luminescent P. aeruginosa PAO1 strain (PAO1.lux) was added at an MOI of 10. After incubation of PAO1.lux with A549 cells at 37° C. for 1 hour, the A549 cells were washed, followed by addition of LB+0.5% glucose. Bacteria were quantified following a brief incubation at 37° C. as performed in the OPK assay described in Example 2. Measurements from wells without A549 cells were used to correct for non-specific binding.

[4] = system: P. aeruginosa strains PAO1, 33356, 6294, 6077, 6206; assay: Acute pneumonia model, organ burden; assay type: in vivo, BALB/c mice
Protocol: Antibodies or PBS were administered 24 hours before infection in each model. P. aeruginosa acute pneumonia, keratitis, and thermal injury infection models were performed as described (DiGiandomenico, A., et al., Proc Natl Acad Sci USA 104, 4624-4629 (2007)), with modifications. In the acute pneumonia model, BALB/c mice (The Jackson Laboratory) were infected with P. aeruginosa strains suspended in a 0.05 ml inoculum. In the thermal injury model, CF-1 mice (Charles River) received a 10% total body surface area burn with a metal brand heated to 92° C. for 10 seconds. Animals were infected subcutaneously with P. aeruginosa strain 6077 at the indicated dose. For organ burden experiments, acute pneumonia was induced in mice followed by harvesting of lungs, spleens, and kidneys 24 hours post-infection for determination of CFU.

P. aeruginosa PAO10 LPS = assay: Endotoxemia (LPS challenge) model; assay type: in vivo, C57Bl/6 mice; details: control mice dosed with unconjugated mAb
Protocol: In particular, C57Bl/6 mice (10 per group) were dosed i.p. with mAb or PMB-mAb conjugate 6 h prior to challenge with P. aeruginosa PAO10 LPS (Sigma) and D-galactosamine. PMB control was dosed i.p. 2 h prior to challenge at 0.2 mg/kg and typically provides 80-100% protection. Control mice dosed with unconjugated CAM-003 all died within 18 h.
TM conjugates were dosed at 45, 15 and 5 mg/kg.

Cam-003: human IgG1 anti-Psl monoclonal antibody, VH SEQ ID NO: 1 and VL SEQ ID NO: 2
OPK EC50 ([1]; FIG. 9A): 0.06 µg/mL | OPK activity (concentration dependent killing) ([1]; human IgG1 antibodies, differentiated HL-60 cells, baby rabbit serum, FIG. 2A): superior OPK activity | OPK activity [2]: OPK activity extends to strain 9882-80 | ability to mediate opsonic killing (PAO1ΔpslA): restored | inhibition of association of PAO1.lux to A549 cells [3]: most active at inhibiting P. aeruginosa cell attachment to A549 lung epithelial cells | dissemination to the spleen and kidneys ([4]; PAO1, 6294 and 6077, FIGS. 7A, 7C, 7D): marked effect in reducing dissemination to the spleen and kidneys | lung burden (viable CFU) ([4]; PAO1, 33356, 6294, 6077, 24 hours post-infection, FIGS. 7A-D): effective at reducing P. aeruginosa lung burden against all four strains tested | lung burden, dose dependence ([4]; cytotoxic strain 6077, FIG. 7D): the low dose was as effective as the higher dose | time within which all mice died (P. aeruginosa PAO10 LPS): ≤ 18 h
